Converted amounts (≈) assume the structure as drawn.

For this data set the following is noted: buffer; pH 7.4; 200.0 µM.
As for `C=CCNC(=O)COc1cc(C)cc(C)c1C`, the kinetic solubility (commonly the concentration staying in solution when a stock, usually in DMSO, is diluted into the medium) stood at 30.8 µg/mL (≈ 132 µM).

As to `O=c1oc2ccccc2c(Nc2ccc(F)cc2)c1[N+](=O)[O-]`, the kinetic solubility was determined as 8.4 µg/mL (≈ 28 µM).

In turn, `COc1ccc(C(=O)CSc2nc(C)cc(C)n2)cc1C` came in with a kinetic solubility of 17.4 µg/mL (≈ 57.5 µM).

Consider `COC(=O)c1c(C)oc(C)c1S(=O)(=O)Nc1ccc(C(C)C)cc1`, for which the kinetic solubility came to 7.2 µg/mL (≈ 20.5 µM).

`Cc1noc(C)c1-c1nc(CSc2ccccc2)no1` yielded a solubility (kinetic) of 0.8 µg/mL (≈ 2.78 µM).

For `O=C(Nc1ccccc1)C1COc2ccccc2O1` (stereo unspecified), the solubility (kinetic) is 30.1 µg/mL (≈ 118 µM).

On to `O=C(Nc1ccccc1C(F)(F)F)C1CCCC1`, for which the solubility (kinetic) came out at 30.4 µg/mL (≈ 118 µM).

For the compound `Cn1cccc1C1CCCN1CC(=O)Nc1ccc(C(N)=O)cc1` (stereo unspecified), the solubility (kinetic) was more than 49 µg/mL.

`O=C1CCN(C(=S)NCc2ccccc2)CC1` displayed a kinetic solubility of more than 37.3 µg/mL.

`Cc1ccc(-n2c(-c3ccccc3)c[nH]c2=S)cc1` came in with a kinetic solubility of 0.6 µg/mL (≈ 2.25 µM).

`CCn1c(SCC(=O)N2CCCC2)nc2c(c1=O)SCC2` registered a solubility (kinetic) of more than 48.8 µg/mL.

`COc1ccc(NC(=O)c2cncn2-c2ccccc2)cc1` yielded a solubility (kinetic) of 42.6 µg/mL (≈ 145 µM).

The compound `CC1CCc2c(C(=O)Nc3ccccn3)csc2C1` (stereo unspecified) showed a kinetic solubility of 11.6 µg/mL (≈ 42.6 µM).

For `O=C(Nc1nc2ccsc2c(=O)s1)c1ccc(Cl)cc1`, the kinetic solubility was less than 0.3 µg/mL.

Take `O=C(NCCN1CCNCC1)c1ccccc1O`: the kinetic solubility was more than 37.4 µg/mL.

In turn, `Cc1cccc(NC(=O)OC2CN3CCC2CC3)c1` (stereo unspecified) had a solubility (kinetic) of more than 39.1 µg/mL.

Take `O=C(CNC(=O)c1ccc(F)cc1)c1ccccc1`: the solubility (kinetic) is more than 38.6 µg/mL.

The compound `CCCc1c(C)nc(-c2ccc(C)cc2)nc1OC(=O)N(C)C` came in with a kinetic solubility of 27.3 µg/mL (≈ 87.1 µM).

Compound `O=C(Nc1sc2c(c1C(=O)O)CCC2)c1cccc(Cl)c1` yielded a solubility (kinetic) of more than 48.3 µg/mL.

`O=C(OCc1cncs1)c1ccccc1Cl` displayed a kinetic solubility of more than 38.1 µg/mL.

Consider `COc1ccc(C(=O)COc2ncnc3cc(Cl)ccc23)cc1`, for which the kinetic solubility is less than 0.4 µg/mL.

For the compound `Cc1ccc(C)c(NS(=O)(=O)c2ccc3[nH]c(=O)[nH]c3c2)c1`, the solubility (kinetic) was found to be 4.8 µg/mL (≈ 15.1 µM).

For `CC(=O)NC(CC(=O)N(C)C1CCCCC1)c1ccccc1` (stereo unspecified), the kinetic solubility was more than 45.4 µg/mL.

Regarding `Cn1c(N)c(C(=O)COC(=O)Cc2cccc(C(F)(F)F)c2)c(=O)n(C)c1=O`, the solubility (kinetic) was determined as 53.2 µg/mL (≈ 133 µM).

On to `COc1ccc(S(=O)(=O)NCC2CCCO2)cc1C(=O)O` (stereo unspecified), for which the solubility (kinetic) was more than 47.3 µg/mL.

In turn, `C[C@H](NC(=O)c1ccco1)C(=O)NC1CCCCCC1` gave a kinetic solubility of more than 41.8 µg/mL.

Turning to `CCOC(=O)C1Sc2ccccc2NC1=O` (stereo unspecified), the kinetic solubility was more than 35.6 µg/mL.

In turn, `COc1ccccc1C1CCN(C(=O)c2cccc([N+](=O)[O-])c2)CC1` showed a kinetic solubility of 39.5 µg/mL (≈ 116 µM).

`CCNC(=S)N1CCN(C(=O)C(Cc2ccccc2)NC(C)=O)CC1` (stereo unspecified): the solubility (kinetic) is more than 54.4 µg/mL.

Turning to `N#CCn1c(Cc2ccccc2)nc2ccccc2c1=O`, the solubility (kinetic) is more than 41.3 µg/mL.

Consider `CC1Cc2ccccc2N1C(=O)c1ccc2nccnc2c1` (stereo unspecified), for which the solubility (kinetic) is more than 43.4 µg/mL.

As to `Cc1cc(C)c(-c2cc(C)nc3ncnn23)c(C)c1`, the kinetic solubility is more than 37.8 µg/mL.

Take `CN1C(c2ccccc2)=NO[C@]1(C)c1ccccc1`: the solubility (kinetic) worked out at 35.9 µg/mL (≈ 142 µM).

`NS(=O)(=O)c1ccc(CNC(=O)Cc2ccccc2F)cc1` came in with a kinetic solubility of more than 48.4 µg/mL.

On to `COC(=O)c1csc(S(=O)(=O)N2CCOCC2)c1OC`, for which the kinetic solubility was more than 48.2 µg/mL.

With `COc1ccc(-c2cc(C(=O)N3CCCC3)no2)cc1`, the solubility (kinetic) turned out to be 30.4 µg/mL (≈ 112 µM).

`CCN1C(=O)NC(c2ccccc2)(c2ccccc2)C1=O` gave a solubility (kinetic) of less than 0.3 µg/mL.

`CCOC(=O)c1cc(-c2csc(COc3ccccc3)n2)on1` yielded a solubility (kinetic) of 0.4 µg/mL (≈ 1.21 µM).

Compound `Cn1ncc([N+](=O)[O-])c1C(=O)Nc1ccccc1` came in with a kinetic solubility of more than 36.9 µg/mL.

The compound `Cc1csc(=O)n1CC(=O)Nc1nc2ccccc2s1` had a kinetic solubility of more than 45.8 µg/mL.

`CC(=O)CC1(OC(C)=O)C(=O)N(C)c2ccccc21` (stereo unspecified) displayed a kinetic solubility of more than 39.2 µg/mL.

Turning to `CCCCC(=O)N(CCOC)c1nnc(-c2cccnc2)s1`, the solubility (kinetic) is more than 48.1 µg/mL.

The compound `O=C(OCC(=O)N1CCN(c2ccccc2)CC1)c1ccc([N+](=O)[O-])s1` showed a kinetic solubility of 7.1 µg/mL (≈ 18.9 µM).

Compound `CNC(=O)COC(=O)/C=C/c1cccs1` registered a kinetic solubility of more than 33.8 µg/mL.

For the compound `Cc1ccc(NS(=O)(=O)c2ccc(C(=O)NCCN3CCOCC3)cc2)cc1.Cl`, the kinetic solubility was more than 66 µg/mL.

For `COc1ccc(CCNC(=O)COC(=O)c2ccc(S(=O)(=O)N3CCCC3)cc2)cc1OC`, the solubility (kinetic) is 7.2 µg/mL (≈ 15.1 µM).

For `COc1ccccc1CC(=O)N1CCN(CCc2ccccc2)CC1`, the kinetic solubility was more than 50.8 µg/mL.

In the case of `COc1ccc(N2CCN(C(=O)Cc3coc4cc(C)ccc34)CC2)cc1`, the solubility (kinetic) stood at 25.9 µg/mL (≈ 71.1 µM).

`O=C(NCc1cccnc1)C(=O)Nc1nc(-c2ccccc2)cs1` registered a solubility (kinetic) of 4.8 µg/mL (≈ 14.2 µM).

As for `O=C(Nc1cccc(S(=O)(=O)N2CCCCCC2)c1)c1ccc(Cl)nc1`, the kinetic solubility amounted to 8.2 µg/mL (≈ 20.8 µM).

`Cc1onc(-c2ccccc2Cl)c1C(=O)NCc1ccc(F)cc1` displayed a solubility (kinetic) of 45.3 µg/mL (≈ 131 µM).

For `C=CCN1C(=O)/C(=C/c2ccsc2)SC1=S`, the kinetic solubility was less than 0.6 µg/mL.

In the case of `CC1(C)C2SCC(=O)N2CCN1CC(=O)NN` (stereo unspecified), the solubility (kinetic) was more than 38.8 µg/mL.

For the compound `Cc1sc2ncnc(SCC(=O)N3CCCCC3)c2c1C`, the solubility (kinetic) amounted to 5.5 µg/mL (≈ 17.1 µM).

As for `CCc1noc(C)c1C(=O)Nc1ccc(C(F)(F)F)cc1`, the solubility (kinetic) is 7.5 µg/mL (≈ 25.1 µM).

Regarding `COC(=O)c1ccccc1NC(=O)Nc1ccc(Cl)cn1`, the kinetic solubility was more than 45.9 µg/mL.

In turn, `O=C(CCCN1CCC2(CC1)C(=O)NCN2c1ccccc1)c1ccc(F)cc1` showed a kinetic solubility of 50.1 µg/mL (≈ 127 µM).

With `Nc1ccc(-c2nc3ncccc3o2)c(O)c1`, the kinetic solubility came to 3.1 µg/mL (≈ 13.6 µM).

`CCC(Cc1ccccc1)NC(=O)C1CC1` (stereo unspecified) had a solubility (kinetic) of more than 32.6 µg/mL.

In turn, `O=C(Nc1cccc2ccccc12)NC1CCCCC1` returned a kinetic solubility of less than 0.3 µg/mL.

With `CC(C)Cc1nc(N2CCNCC2)c(C#N)c2c1CCC2`, the solubility (kinetic) was 41.1 µg/mL (≈ 145 µM).

Regarding `Cc1ccc(S(=O)(=O)N2CCCC(C)C2)cc1` (stereo unspecified), the solubility (kinetic) was found to be 21.3 µg/mL (≈ 84.1 µM).

`COc1cccc(-c2nc(CCl)cs2)c1.Cl`: the solubility (kinetic) stood at 22.4 µg/mL.

Turning to `CSc1nnc(C)c(=O)n1COC(=O)c1ccccc1`, the kinetic solubility was more than 43.7 µg/mL.

For the compound `O=C(OCC(=O)N1CCN(C(=O)c2ccco2)CC1)c1cc(F)c(F)cc1Cl`, the solubility (kinetic) is more than 61.9 µg/mL.

For `COc1cc(/C=C/C(=O)OCC(=O)NC2CC2)cc(OC)c1OC`, the kinetic solubility is more than 50.3 µg/mL.

`CCOc1ccc(N2C=Nc3ccc(OCC)cc3C2)cc1` displayed a kinetic solubility of 11.6 µg/mL (≈ 39.1 µM).

`Cc1cc(NC(=O)COC(=O)c2c(C)c(C)c(C)c(C)c2C)no1` displayed a kinetic solubility of 2.3 µg/mL (≈ 6.96 µM).

Turning to `CC(CCc1ccccc1)NC(=O)c1cnc(Cl)c(Cl)c1` (stereo unspecified), the kinetic solubility turned out to be 5.5 µg/mL (≈ 17 µM).

As to `Cc1cccc2sc(NC(=O)C3CC3)nc12`, the solubility (kinetic) amounted to 1.4 µg/mL (≈ 6.03 µM).

Compound `Nc1ccc(S(=O)(=O)NC2=NCCCCC2)cc1N` gave a solubility (kinetic) of more than 42.4 µg/mL.

`CN(C)c1nc(-c2ccccc2)ns1` yielded a kinetic solubility of 12.5 µg/mL (≈ 60.9 µM).

`O=c1ccc2ccc(Oc3ccc([N+](=O)[O-])cc3Cl)cc2o1` yielded a solubility (kinetic) of 2.5 µg/mL (≈ 7.87 µM).

`Cc1noc(C)c1C(=O)OC(C)C(=O)N1CCc2ccccc21` (stereo unspecified): the solubility (kinetic) was 6 µg/mL (≈ 19.1 µM).

Turning to `O=[N+]([O-])c1ccc(COc2ncnc3ccccc23)cc1`, the solubility (kinetic) is 27.7 µg/mL (≈ 98.5 µM).

With `CSc1nc2c(c(=O)[nH]c(=O)n2C)n1CCCc1ccccc1`, the solubility (kinetic) was found to be 24 µg/mL (≈ 72.6 µM).

For the origin of these results see PubChem BioAssay AID1996.
